This assay deals with T1, PI3Kα H1047R in T47D cells (Homo sapiens, UniProt P42336, H1047R).
T1 construct: endogenous in cells; host or cells: T47D
The experiment in a line: PI3Kα cellular assay: T47D pAKT S473 HTRF. The class given is cell-based. The settings on record: for T47D pAKT S473 HTRF IC50 (H1047R): T47D (H1047R) selectivity over SKBR3 (WT): T47D (H1047R) versus SKBR3 (WT) cells; for IC50: T47D cells (H1047R), serum starved, 1 hr compound, 20 ng/ml EGF 10 min. The method, then: PI3Kα cellular assay experimental procedure: SKBR3 or T47D cells are seeded in DMEM containing 10% FBS at 25 k cells/well into 96-well cell culture format. Cells are incubated overnight at 37° C. in a 5% CO2 incubator and the following day cell media is aspirated, adherent cells are washed 1× with room temperature PBS prior to serum-free media application. Cells are returned to 37° C. 5% CO2 incubator and incubated a further 16 hrs. Compounds are added to serum starved adherent cells with a top dose of 10,000 nM and 3× multiple dose reductions for a minimum dose of 0.5 nM diluted in DMSO. Cell/compound incubation continues for 1 hr in a 37° C., 5% CO2 incubator prior to 10 minute PIK3CA stimulation with 20 ng/ml EGF. Cells treated with 0.1% DMSO and 20 ng/mL EGF are employed as negative control, cells treated with 10 uM Alpelisib and 20 ng/mL EGF are employed as a positive control. After 10 mins, plates are removed from incubator and cells are lysed with buffer and shaking 45 minutes. 20 μL of lysate is transferred to an opti-384 plate and 2.5 μl of Phospho-AKT d2 antibody with 2.5 μl of Phospho-AKT Eu Cryptate solution in the detection buffer are added to each well. 384 well plate is left overnight at room temperature before reading HTRF on an Envision plate reader.

SMILES strings stand for the structures. Bounds are passed on as bounds.

T1 sequence (P42336 whole entry H1047R): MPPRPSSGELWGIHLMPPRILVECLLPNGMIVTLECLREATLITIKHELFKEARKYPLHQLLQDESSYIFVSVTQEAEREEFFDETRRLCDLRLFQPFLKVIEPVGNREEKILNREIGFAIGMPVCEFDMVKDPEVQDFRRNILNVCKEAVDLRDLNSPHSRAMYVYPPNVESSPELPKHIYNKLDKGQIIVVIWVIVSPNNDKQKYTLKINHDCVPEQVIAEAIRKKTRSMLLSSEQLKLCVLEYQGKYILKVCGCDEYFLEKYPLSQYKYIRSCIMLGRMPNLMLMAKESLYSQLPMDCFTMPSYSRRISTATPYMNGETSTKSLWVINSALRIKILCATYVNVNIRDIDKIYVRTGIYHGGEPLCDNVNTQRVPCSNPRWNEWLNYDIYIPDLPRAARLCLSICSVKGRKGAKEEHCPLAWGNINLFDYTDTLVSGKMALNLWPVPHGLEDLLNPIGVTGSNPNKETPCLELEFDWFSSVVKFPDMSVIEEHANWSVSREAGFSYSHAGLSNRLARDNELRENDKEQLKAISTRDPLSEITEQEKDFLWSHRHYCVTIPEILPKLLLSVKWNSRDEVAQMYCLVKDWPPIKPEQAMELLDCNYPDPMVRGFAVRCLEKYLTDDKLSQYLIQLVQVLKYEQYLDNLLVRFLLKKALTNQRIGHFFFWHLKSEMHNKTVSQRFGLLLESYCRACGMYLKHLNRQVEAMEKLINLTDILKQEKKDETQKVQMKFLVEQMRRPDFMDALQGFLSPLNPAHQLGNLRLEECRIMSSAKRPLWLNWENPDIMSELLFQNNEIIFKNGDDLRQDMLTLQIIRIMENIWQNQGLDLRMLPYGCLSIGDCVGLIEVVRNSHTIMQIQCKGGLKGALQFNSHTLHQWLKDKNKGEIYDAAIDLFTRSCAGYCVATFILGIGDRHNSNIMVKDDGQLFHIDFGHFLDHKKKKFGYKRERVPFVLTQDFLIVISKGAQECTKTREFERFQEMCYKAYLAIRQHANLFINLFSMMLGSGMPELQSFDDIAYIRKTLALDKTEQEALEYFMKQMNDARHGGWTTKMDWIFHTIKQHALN
T1 sequence (P27986 whole entry partner): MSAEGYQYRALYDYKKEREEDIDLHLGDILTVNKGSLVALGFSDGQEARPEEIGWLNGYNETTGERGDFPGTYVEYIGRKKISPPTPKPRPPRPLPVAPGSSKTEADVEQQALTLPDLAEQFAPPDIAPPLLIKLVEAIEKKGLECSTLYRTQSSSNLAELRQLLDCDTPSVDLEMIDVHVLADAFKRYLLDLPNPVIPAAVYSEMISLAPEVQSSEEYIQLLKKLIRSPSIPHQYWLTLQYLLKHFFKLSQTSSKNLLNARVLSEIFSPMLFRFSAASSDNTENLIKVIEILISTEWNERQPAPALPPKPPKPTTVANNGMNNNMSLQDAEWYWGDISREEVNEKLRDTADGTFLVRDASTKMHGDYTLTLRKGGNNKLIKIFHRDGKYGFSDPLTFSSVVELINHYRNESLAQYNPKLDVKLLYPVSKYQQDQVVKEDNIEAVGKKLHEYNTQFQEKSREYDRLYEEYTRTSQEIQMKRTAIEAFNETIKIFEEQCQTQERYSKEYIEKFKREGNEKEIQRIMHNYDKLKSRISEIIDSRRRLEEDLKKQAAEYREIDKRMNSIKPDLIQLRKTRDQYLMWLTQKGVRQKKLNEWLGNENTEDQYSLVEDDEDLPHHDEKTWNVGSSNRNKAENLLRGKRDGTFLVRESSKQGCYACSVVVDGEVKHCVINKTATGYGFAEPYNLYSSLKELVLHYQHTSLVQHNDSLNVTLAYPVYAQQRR

As a reminder, the IC50 is the midpoint of a concentration-inhibition curve. Low values mean inhibition by little substance, high ones a need for much substance. In the case of `Cc1cc([C@@H](C)Nc2ccccc2C(=O)O)c2[nH]c(N3CCOCC3)nc(=O)c2c1` [Compound 18], the “T47D pAKT S473 HTRF IC50 (H1047R): T47D (H1047R) selectivity over SKBR3 (WT)” value is reported as “C (C denotes ≤5-fold)” and the IC50 was no less than 2000 nM.
Take `Cc1cc(C(C)Nc2ccccc2C(=O)O)c2cc(C3CCCOC3)ncc2c1` (centres unmarked) [Compound 131]: the “T47D pAKT S473 HTRF IC50 (H1047R): T47D (H1047R) selectivity over SKBR3 (WT)” value was “A (A denotes >20-fold)” and the half-maximal inhibitory concentration (IC50) is less than 750 nM.
For `Cc1cc(C(C)Nc2ccccc2C(=O)O)c2nc(-c3ccc(C4CC4)nc3)n(C)c(=O)c2c1` (centres unmarked) [Compound 136] the same measures were “A (A denotes >20-fold)” and less than 750 nM.
For `Cc1cc(C(C)Nc2ccccc2C(=O)O)c2nc(N3CCC(C)(C)CC3)nc(N)c2c1` (centres unmarked) [Compound 3] the same measures were “C (C denotes ≤5-fold)” and no less than 2000 nM.
The corresponding values for `Cc1cc(C(C)Nc2ccccc2C(=O)O)c2nc(N3Cc4ccccc4C3)[nH]c(=O)c2c1` (centres unmarked) [Compound 6] are “C (C denotes ≤5-fold)” and no less than 2000 nM.
As to `Cc1cc([C@@H](C)Nc2ccccc2C(=O)O)c2nc(-c3ccc(C)nc3)n(C)c(=O)c2c1` [Compound 135], the “T47D pAKT S473 HTRF IC50 (H1047R): T47D (H1047R) selectivity over SKBR3 (WT)” value is recorded as “A (A denotes >20-fold)” and the half-inhibitory concentration (IC50) was less than 750 nM.
As for `Cc1cc(C(C)Nc2ccccc2C(=O)O)c2cc(OCc3ccccc3)nc(C(N)=O)c2c1` (centres unmarked) [Compound 128], the “T47D pAKT S473 HTRF IC50 (H1047R): T47D (H1047R) selectivity over SKBR3 (WT)” value is given as “A (A denotes >20-fold)” and the IC50 was less than 750 nM.
With `Cc1cc([C@@H](C)Nc2ccccc2C(=O)O)c2nc(-c3ccnc(C#N)c3)n(C)c(=O)c2c1` [Compound 143], the “T47D pAKT S473 HTRF IC50 (H1047R): T47D (H1047R) selectivity over SKBR3 (WT)” value is “A (A denotes >20-fold)” and the IC50 is less than 750 nM.
In the case of `Cc1cc([C@H](C)Nc2ccccc2C(=O)O)c2nc(N3Cc4ccccc4C3)ncc2c1` [Compound 36], the “T47D pAKT S473 HTRF IC50 (H1047R): T47D (H1047R) selectivity over SKBR3 (WT)” value is reported as “B (B denotes 20-fold≥value>5-fold)” and the IC50 lay in the range of 750 to 2000 nM.
For the compound `Cc1cc([C@@H](C)Nc2ccccc2C(=O)O)c2nc(N3CCC(C)(C)CC3)nc(O)c2c1` [Compound 12], the “T47D pAKT S473 HTRF IC50 (H1047R): T47D (H1047R) selectivity over SKBR3 (WT)” value is “C (C denotes ≤5-fold)” and the IC50 is no less than 2000 nM.
Regarding `Cc1cc([C@H](C)Nc2ccccc2C(=O)O)c2nc(N3CCC(C)(C)CC3)nc(N)c2c1` [Compound 1], the “T47D pAKT S473 HTRF IC50 (H1047R): T47D (H1047R) selectivity over SKBR3 (WT)” value is listed as “C (C denotes ≤5-fold)” and the IC50 is no less than 2000 nM.
Consider `Cc1cc(C(C)Nc2ccccc2C(=O)O)c2nc(N3Cc4ccccc4C3)nc(NC3COC3)c2c1` (centres unmarked) [Compound 71], for which the “T47D pAKT S473 HTRF IC50 (H1047R): T47D (H1047R) selectivity over SKBR3 (WT)” value is reported as “C (C denotes ≤5-fold)” and the IC50 is no less than 2000 nM.
As to `Cc1cc([C@H](C)Nc2ccccc2C(=O)O)c2nc(N3CCC(C)(C)CC3)nc(O)c2c1` [Compound 11], the “T47D pAKT S473 HTRF IC50 (H1047R): T47D (H1047R) selectivity over SKBR3 (WT)” value was “B (B denotes 20-fold≥value>5-fold)” and the IC50 was in the range of 750 to 2000 nM.
Turning to `Cc1cc([C@@H](C)Nc2ccccc2C(=O)O)c2nc(N3CCC(C)(C)CC3)nc(N)c2c1` [Compound 2], the “T47D pAKT S473 HTRF IC50 (H1047R): T47D (H1047R) selectivity over SKBR3 (WT)” value is given as “C (C denotes ≤5-fold)” and the IC50 is no less than 2000 nM.
The corresponding values for `Cc1cc(C(C)Nc2ccccc2C(=O)O)c2nc(N3CCC(C)(C)CC3)nc(NC(=O)CCl)c2c1` (centres unmarked) [Compound 21] are “C (C denotes ≤5-fold)” and no less than 2000 nM.
As to `Cc1cc(C(C)Nc2ccccc2C(=O)O)c2cc(N3Cc4ccccc4C3)nc(C#N)c2c1` (centres unmarked) [Compound 46], the “T47D pAKT S473 HTRF IC50 (H1047R): T47D (H1047R) selectivity over SKBR3 (WT)” value is listed as “C (C denotes ≤5-fold)” and the IC50 is no less than 2000 nM.
The corresponding values for `Cc1cc([C@H](C)Nc2ccccc2C(=O)O)c2nc(N3Cc4ccccc4C3)nc(N3CC(O)C3)c2c1` [Compound 144] are “B (B denotes 20-fold≥value>5-fold)” and 750 to 2000 nM.
Regarding `Cc1cc([C@@H](C)Nc2ccccc2C(=O)O)c2nc(-c3ccc4c(c3)c(C)cn4C)n(C)c(=O)c2c1` [Compound 134], the “T47D pAKT S473 HTRF IC50 (H1047R): T47D (H1047R) selectivity over SKBR3 (WT)” value is recorded as “A (A denotes >20-fold)” and the IC50 is less than 750 nM.
For `Cc1cc(C(C)Nc2ccccc2C(=O)O)c2nc(N3Cc4ccccc4C3)nc(C3CC3O)c2c1` (centres unmarked) [Compound 69] the same measures were “B (B denotes 20-fold≥value>5-fold)” and 750 to 2000 nM.
With `Cc1cc(C(C)Nc2ccccc2C(=O)O)c2cc(N3Cc4ccccc4C3)ncc2c1` (centres unmarked) [Compound 59], the “T47D pAKT S473 HTRF IC50 (H1047R): T47D (H1047R) selectivity over SKBR3 (WT)” value is given as “B (B denotes 20-fold≥value>5-fold)” and the IC50 fell in the range of 750 to 2000 nM.
For the compound `Cc1cc(C(C)Nc2ccccc2C(=O)O)c2nc(N3CCC(C)(C)CC3)nc(C#N)c2c1` (centres unmarked) [Compound 61], the “T47D pAKT S473 HTRF IC50 (H1047R): T47D (H1047R) selectivity over SKBR3 (WT)” value is “A (A denotes >20-fold)” and the IC50 was less than 750 nM.
`Cc1cc(C(C)Nc2ccccc2C(=O)O)c2cc(-c3ccc4c(c3)c(C)nn4C)n(C)c(=O)c2c1` (centres unmarked) [Compound 87]: the “T47D pAKT S473 HTRF IC50 (H1047R): T47D (H1047R) selectivity over SKBR3 (WT)” value is listed as “A (A denotes >20-fold)” and the IC50 was less than 750 nM.
Take `Cc1cc(C(C)Nc2ccccc2C(=O)O)c2nc(-c3ccncc3)nc(O)c2c1` (centres unmarked) [Compound 9, 2-((1-(4-hydroxy-6-methyl-2-(pyridin-4-yl)quinazolin-8-yl)ethyl)amino)benzoic acid]: the “T47D pAKT S473 HTRF IC50 (H1047R): T47D (H1047R) selectivity over SKBR3 (WT)” value is reported as “B (B denotes 20-fold≥value>5-fold)” and the IC50 was less than 750 nM.
For `Cc1cc(C(C)Nc2ccccc2C(=O)O)c2nc(N3Cc4ccccc4C3)nc(NC3CC3O)c2c1` (centres unmarked) [Compound 65] the same measures were “B (B denotes 20-fold≥value>5-fold)” and 750 to 2000 nM.
For `Cc1cc(C(C)Nc2ccccc2C(N)=O)c2nc(-c3cccnc3)n(C)c(=O)c2c1` (centres unmarked) [Compound 139] the same measures were “B (B denotes 20-fold≥value>5-fold)” and 750 to 2000 nM.
For `Cc1cc([C@@H](C)Nc2ccccc2C(=O)O)c2nc(N3Cc4ccccc4C3)ncc2c1` [Compound 35] the same measures were “C (C denotes ≤5-fold)” and no less than 2000 nM.
As to `Cc1cc(C(C)Nc2ccccc2C(=O)O)c2nc(N3Cc4ccccc4C3)nc(N3CC(O)C3)c2c1` (centres unmarked) [Compound 63, 2-((1-(4-(3-hydroxyazetidin-1-yl)-2-(isoindolin-2-yl)-6-methylquinazolin-8-yl)ethyl)amino)benzoic acid], the “T47D pAKT S473 HTRF IC50 (H1047R): T47D (H1047R) selectivity over SKBR3 (WT)” value is “B (B denotes 20-fold≥value>5-fold)” and the half-maximal inhibitory concentration (IC50) lay within 750 to 2000 nM.
The corresponding values for `Cc1cc([C@@H](C)Nc2ccccc2C(=O)O)c2cc(-c3ccnc(C4CC4)c3)ncc2c1` [Compound 89] are “A (A denotes >20-fold)” and less than 750 nM.
For `Cc1cc([C@@H](C)Nc2ccccc2C(=O)O)c2cc(OC3CCOCC3)ncc2c1` [Compound 132] the same measures were “A (A denotes >20-fold)” and less than 750 nM.
With `Cc1cc([C@H](C)Nc2ccccc2C(=O)O)c2[nH]c(N3CCOCC3)nc(=O)c2c1` [Compound 17], the “T47D pAKT S473 HTRF IC50 (H1047R): T47D (H1047R) selectivity over SKBR3 (WT)” value is on record as “B (B denotes 20-fold≥value>5-fold)” and the IC50 was less than 750 nM.
The corresponding values for `Cc1cc([C@H](C)Nc2ccccc2C(=O)O)c2nc(N3CCC(C)(C)CC3)ncc2c1` [Compound 7] are “C (C denotes ≤5-fold)” and no less than 2000 nM.
With `Cc1cc([C@@H](C)Nc2ccccc2C(=O)O)c2nc(N3Cc4ccccc4C3)nc(OC3COC3)c2c1` [Compound 146], the “T47D pAKT S473 HTRF IC50 (H1047R): T47D (H1047R) selectivity over SKBR3 (WT)” value was “A (A denotes >20-fold)” and the IC50 is less than 750 nM.
Regarding `Cc1cc([C@@H](C)Nc2ccccc2C(N)=O)c2nc(-c3cccnc3)n(C)c(=O)c2c1` [Compound 141], the “T47D pAKT S473 HTRF IC50 (H1047R): T47D (H1047R) selectivity over SKBR3 (WT)” value is given as “B (B denotes 20-fold≥value>5-fold)” and the IC50 is less than 750 nM.
Take `Cc1cc([C@@H](C)Nc2ccccc2C(=O)O)c2nc(-c3ccnc(C4CC4)c3)n(C)c(=O)c2c1` [Compound 145]: the “T47D pAKT S473 HTRF IC50 (H1047R): T47D (H1047R) selectivity over SKBR3 (WT)” value was “B (B denotes 20-fold≥value>5-fold)” and the IC50 is less than 750 nM.
The corresponding values for `Cc1cc([C@@H](C)Nc2ccccc2C(=O)O)c2nc(-c3ccc(C#N)nc3)n(C)c(=O)c2c1` [Compound 138] are “A (A denotes >20-fold)” and less than 750 nM.
For the compound `Cc1cc([C@@H](C)Nc2ccccc2C(=O)O)c2nc(N3Cc4ccccc4C3)[nH]c(=O)c2c1` [Compound 4], the “T47D pAKT S473 HTRF IC50 (H1047R): T47D (H1047R) selectivity over SKBR3 (WT)” value was “C (C denotes ≤5-fold)” and the IC50 is no less than 2000 nM.
Consider `Cc1cc([C@H](C)Nc2ccccc2C(=O)O)c2nc(-c3ccc(F)cc3)n(C)c(=O)c2c1` [Compound 39], for which the “T47D pAKT S473 HTRF IC50 (H1047R): T47D (H1047R) selectivity over SKBR3 (WT)” value is “C (C denotes ≤5-fold)” and the IC50 was no less than 2000 nM.

For the origin of these results see patent publication US20260130925A1, “METHODS FOR TREATING CANCER” (Genesis Molecular AI, Inc., priority 2022, published 2026).
